Assays:
[1] = target: T1, LRRK2 WT (Homo sapiens, UniProt Q5S007); test: LRRK2 Kinase Activity Assay (LanthaScreen TR-FRET), wild type; format: biochemical; settings: recombinant wild type LRRK2, 25 μM ATP, 400 nM LRRKtide, 60 min; class symbols
T1 construct: purchased Life Technologies PR8604B
Outline: (§1)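 Recombinant wild-type or G2019S LRRK2 incubated with fluorescein-labeled LRRKtide (ERM-based) peptide, ATP and serially diluted compound for 60 min at room temperature.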

[2] = target: T2, LRRK2 G2019S (Homo sapiens, UniProt Q5S007, G2019S); test: LRRK2 Kinase Activity Assay (LanthaScreen TR-FRET), G2019S; format: biochemical; settings: recombinant G2019S-LRRK2, 25 μM ATP, 400 nM LRRKtide, 60 min; class symbols
T2 construct: purchased Life Technologies PV4881
T2 sequence (Q5S007 whole entry G2019S): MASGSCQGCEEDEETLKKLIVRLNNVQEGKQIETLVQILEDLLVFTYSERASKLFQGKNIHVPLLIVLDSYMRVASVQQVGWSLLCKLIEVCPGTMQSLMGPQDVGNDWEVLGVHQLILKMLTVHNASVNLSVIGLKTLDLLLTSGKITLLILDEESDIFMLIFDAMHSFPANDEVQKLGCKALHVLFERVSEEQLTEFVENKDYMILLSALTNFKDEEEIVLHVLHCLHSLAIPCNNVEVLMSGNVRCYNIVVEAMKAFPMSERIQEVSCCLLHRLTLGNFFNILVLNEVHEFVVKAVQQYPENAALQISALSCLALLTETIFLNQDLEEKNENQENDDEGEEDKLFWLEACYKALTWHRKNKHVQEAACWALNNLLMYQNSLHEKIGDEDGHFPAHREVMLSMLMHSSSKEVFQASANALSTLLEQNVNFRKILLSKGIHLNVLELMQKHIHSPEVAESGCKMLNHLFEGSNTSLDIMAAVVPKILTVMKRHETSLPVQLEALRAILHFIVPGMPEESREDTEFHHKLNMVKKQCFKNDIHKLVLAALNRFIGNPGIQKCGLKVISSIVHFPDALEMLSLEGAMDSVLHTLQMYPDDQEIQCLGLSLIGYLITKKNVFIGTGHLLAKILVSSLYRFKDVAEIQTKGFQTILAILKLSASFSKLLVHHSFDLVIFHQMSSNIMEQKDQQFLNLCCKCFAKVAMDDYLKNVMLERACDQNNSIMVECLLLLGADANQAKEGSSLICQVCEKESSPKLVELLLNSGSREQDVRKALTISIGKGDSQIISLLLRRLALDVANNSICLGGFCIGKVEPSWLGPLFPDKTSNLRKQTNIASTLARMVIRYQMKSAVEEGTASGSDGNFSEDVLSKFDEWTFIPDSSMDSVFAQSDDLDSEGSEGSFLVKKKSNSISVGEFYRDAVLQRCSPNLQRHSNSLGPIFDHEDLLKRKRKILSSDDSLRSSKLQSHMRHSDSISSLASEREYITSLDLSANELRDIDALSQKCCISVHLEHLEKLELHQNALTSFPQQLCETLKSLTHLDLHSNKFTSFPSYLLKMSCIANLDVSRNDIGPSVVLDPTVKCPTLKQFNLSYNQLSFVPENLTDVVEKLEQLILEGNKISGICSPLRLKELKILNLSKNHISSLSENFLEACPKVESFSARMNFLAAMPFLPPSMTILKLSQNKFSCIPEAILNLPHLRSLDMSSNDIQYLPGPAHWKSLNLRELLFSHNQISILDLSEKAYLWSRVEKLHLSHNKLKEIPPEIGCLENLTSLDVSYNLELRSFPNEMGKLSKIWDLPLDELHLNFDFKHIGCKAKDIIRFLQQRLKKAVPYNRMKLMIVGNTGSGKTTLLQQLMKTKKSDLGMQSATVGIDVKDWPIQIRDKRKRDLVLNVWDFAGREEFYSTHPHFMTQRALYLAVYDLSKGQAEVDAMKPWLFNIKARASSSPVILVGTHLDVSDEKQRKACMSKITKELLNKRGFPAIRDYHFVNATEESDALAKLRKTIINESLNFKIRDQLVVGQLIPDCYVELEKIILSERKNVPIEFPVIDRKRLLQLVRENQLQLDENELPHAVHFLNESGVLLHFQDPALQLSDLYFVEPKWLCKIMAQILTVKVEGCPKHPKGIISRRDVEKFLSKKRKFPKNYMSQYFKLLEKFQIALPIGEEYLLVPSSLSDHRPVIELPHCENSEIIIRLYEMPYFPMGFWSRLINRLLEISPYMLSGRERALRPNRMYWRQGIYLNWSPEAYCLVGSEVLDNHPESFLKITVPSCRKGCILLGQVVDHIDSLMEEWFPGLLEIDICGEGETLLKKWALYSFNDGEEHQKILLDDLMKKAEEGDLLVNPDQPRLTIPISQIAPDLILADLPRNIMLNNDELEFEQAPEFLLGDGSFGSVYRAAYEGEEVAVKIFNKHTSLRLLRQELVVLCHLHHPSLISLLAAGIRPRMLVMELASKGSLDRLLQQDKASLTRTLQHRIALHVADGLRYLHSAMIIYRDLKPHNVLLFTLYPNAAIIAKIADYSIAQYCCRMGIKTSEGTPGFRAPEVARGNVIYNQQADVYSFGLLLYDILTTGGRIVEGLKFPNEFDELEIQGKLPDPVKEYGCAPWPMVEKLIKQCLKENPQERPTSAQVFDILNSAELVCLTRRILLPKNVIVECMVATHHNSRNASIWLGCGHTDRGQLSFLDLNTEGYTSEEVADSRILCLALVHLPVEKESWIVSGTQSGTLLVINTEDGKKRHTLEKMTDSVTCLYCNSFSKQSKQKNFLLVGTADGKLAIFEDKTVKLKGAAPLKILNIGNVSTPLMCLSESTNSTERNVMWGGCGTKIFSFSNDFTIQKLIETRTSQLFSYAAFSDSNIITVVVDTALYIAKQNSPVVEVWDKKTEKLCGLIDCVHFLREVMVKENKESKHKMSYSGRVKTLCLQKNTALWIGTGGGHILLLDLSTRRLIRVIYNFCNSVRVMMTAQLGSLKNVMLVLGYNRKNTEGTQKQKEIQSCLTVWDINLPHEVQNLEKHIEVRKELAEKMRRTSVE
Outline: as §1

T1 sequence (Q5S007 whole entry): as the sequence (Q5S007 whole entry G2019S) above, with S2019G counted along it

| IC50 [1] [nM] | IC50 [2] [nM] | Structure (SMILES) |
| --- | --- | --- |
| < 100 | < 100 | Cc1c(C#N)c(Cl)nc2c1CC[C@@H]2Oc1ccc2[nH]nc(-c3cnco3)c2c1 (single isomer, unassigned) [Example 166, enantiomer 1, 2-Chloro-4-methyl-7-[[3-(1,3-oxazol-5-yl)-1H-indazol-5-yl]oxy]-6,7-dihydro-5H-cyclopenta[b]pyridine-3-carbonitrile] |
| 100 to 1000 | < 100 | N#Cc1c(F)cc2c(c1F)CC[C@@H]2Oc1ccc2[nH]nc(-c3cnco3)c2c1 (single isomer, unassigned) [Example 167, enantiomer 1, 4,6-Difluoro-1-[[3-(1,3-oxazol-5-yl)-1H-indazol-5-yl]oxy]-2,3-dihydro-1H-indene-5-carbonitrile] |
| 100 to 1000 | < 100 | C[C@@H]1C[C@@H](Nc2ccc3[nH]nc(-c4cnco4)c3c2)c2ccc(C#N)cc21 (single isomer, unassigned) [Example 168, enantiomer 1, trans-3-Methyl-1-[[3-(1,3-oxazol-5-yl)-1H-indazol-5-yl]amino]-2,3-dihydro-1H-indene-5-carbonitrile] |
| 100 to 1000 | < 100 | C[C@@H]1C[C@@H](Nc2ccc3[nH]nc(-c4cnco4)c3c2)c2ccc(C#N)cc21 (single isomer, unassigned) [Example 168, enantiomer 2, trans-3-Methyl-1-[[3-(1,3-oxazol-5-yl)-1H-indazol-5-yl]amino]-2,3-dihydro-1H-indene-5-carbonitrile] |
| 100 to 1000 | < 100 | C[C@H]1C[C@@H](Nc2ccc3[nH]nc(-c4cnco4)c3c2)c2ccc(C#N)cc21 (single isomer, unassigned) [Example 169, enantiomer 1, cis-3-Methyl-1-[[3-(1,3-oxazol-5-yl)-1H-indazol-5-yl]amino]-2,3-dihydro-1H-indene-5-carbonitrile] |
| 100 to 1000 | < 100 | C[C@H]1C[C@@H](Nc2ccc3[nH]nc(-c4cnco4)c3c2)c2ccc(C#N)cc21 (single isomer, unassigned) [Example 169, enantiomer 2, cis-3-Methyl-1-[[3-(1,3-oxazol-5-yl)-1H-indazol-5-yl]amino]-2,3-dihydro-1H-indene-5-carbonitrile] |
| < 100 | < 100 | Cc1nc2c(c(C)c1C#N)CC[C@@H]2Nc1ccc2[nH]nc(-c3cnco3)c2c1 (single isomer, unassigned) [Example 170, enantiomer 1, 2,4-Dimethyl-7-[[3-(1,3-oxazol-5-yl)-1H-indazol-5-yl]amino]-6,7-dihydro-5H-cyclopenta[b]pyridine-3-carbonitrile] |
| 100 to 1000 | < 100 | Cc1nc2c(c(C)c1C#N)CC[C@@H]2Nc1ccc2[nH]nc(-c3cnco3)c2c1 (single isomer, unassigned) [Example 170, enantiomer 2, 2,4-Dimethyl-7-[[3-(1,3-oxazol-5-yl)-1H-indazol-5-yl]amino]-6,7-dihydro-5H-cyclopenta[b]pyridine-3-carbonitrile] |
| < 100 | < 100 | N#Cc1cc2c(nc1Cl)[C@@H](Oc1ccc3[nH]nc(-c4cnco4)c3c1)CC2 (single isomer, unassigned) [Example 171, enantiomer 1, 2-Chloro-7-[[3-(1,3-oxazol-5-yl)-1H-indazol-5-yl]oxy]-6,7-dihydro-5H-cyclopenta[b]pyridine-3-carbonitrile] |
| 100 to 1000 | 100 to 1000 | CC1(C)Cc2cc(C#N)cnc2[C@H]1Nc1ccc2[nH]nc(-c3cnco3)c2c1 (single isomer, unassigned) [Example 172, enantiomer 1, 6,6-Dimethyl-7-[[3-(1,3-oxazol-5-yl)-1H-indazol-5-yl]amino]-5,7-dihydrocyclopenta[b]pyridine-3-carbonitrile] |
| < 100 | < 100 | CC1(C)Cc2cc(C#N)cnc2[C@H]1Nc1ccc2[nH]nc(-c3cnco3)c2c1 (single isomer, unassigned) [Example 172, enantiomer 2, 6,6-Dimethyl-7-[[3-(1,3-oxazol-5-yl)-1H-indazol-5-yl]amino]-5,7-dihydrocyclopenta[b]pyridine-3-carbonitrile] |
